Results from BindingDB's records for doi:10.1016/s0960-894x(00)00485-6 (Axys Pharmaceuticals, 2001).
pKd: −log10 of the molar value.

Experiment: Dissociation constant of compound was evaluated from its IC50 against tryptase at different concentrations

pKd: 10.00
SMILES: NC(N)=Nc1ccc(CNC(=O)N2CCN(C(=O)O[C@@H]3CO[C@H]4[C@@H]3OC[C@H]4OC(=O)N3CCN(C(=O)NCc4ccc(N=C(N)N)cc4)CC3)CC2)cc1 [Derivative of APC-2059]
